The target in test [1] is T1, Recombinant STAT3 protein (STAT3(G127-I722)) (Homo sapiens, UniProt P40763).
T1 construct: Recombinant STAT3 protein (STAT3(G127-I722))
The experiment in a line: STAT3 Fluorescence Polarization (FP) Assay. Format: binding. Particulars: STAT3(G127-I722) 25 nM, probe 5-FAM-GpYLPQTV-NH2 2 nM, 45-minute incubation. In a few lines:
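Fluorescence polarization after a 45-min room-temperature incubation measured compound displacement of a 2 nM fluorescein-labelled phosphotyrosine peptide (5-FAM-GpYLPQTV-NH2) from 25 nM recombinant STAT3(G127-I722). Buffer was 10 mM HEPES pH 7.4 with 1% DMSO final. IC50s were fitted by nonlinear regression of mP against log concentration.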

Test [2] concerns the target T2, Recombinant STAT6 protein (STAT6(W123-T658)) (Homo sapiens, UniProt P42226).
T2 construct: Recombinant STAT6 protein (STAT6(W123-T658))
T2 sequence (P42226 123-658): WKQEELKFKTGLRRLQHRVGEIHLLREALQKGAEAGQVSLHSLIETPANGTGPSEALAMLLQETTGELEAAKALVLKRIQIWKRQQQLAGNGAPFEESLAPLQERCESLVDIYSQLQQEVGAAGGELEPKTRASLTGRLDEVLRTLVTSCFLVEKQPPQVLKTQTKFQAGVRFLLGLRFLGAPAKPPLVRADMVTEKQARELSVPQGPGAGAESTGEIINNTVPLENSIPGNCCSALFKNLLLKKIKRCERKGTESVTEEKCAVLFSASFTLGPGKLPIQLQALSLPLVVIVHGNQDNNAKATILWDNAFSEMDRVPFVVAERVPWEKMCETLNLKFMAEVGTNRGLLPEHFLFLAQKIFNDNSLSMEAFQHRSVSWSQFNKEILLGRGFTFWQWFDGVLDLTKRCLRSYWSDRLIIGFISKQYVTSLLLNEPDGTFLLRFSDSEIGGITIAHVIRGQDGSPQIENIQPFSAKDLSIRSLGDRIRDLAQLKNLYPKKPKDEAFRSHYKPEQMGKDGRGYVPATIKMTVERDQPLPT
The test is described as follows: STAT6 Fluorescence Polarization (FP) Assay. The class given is binding. Particulars: STAT6(W123-T658) 250 nM, probe 5-FAM-ApYKPFQDLI-NH2 2 nM, 45-minute incubation. An outline of the steps:
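Displacement of a fluorescent phosphotyrosine peptide (5-FAM-ApYKPFQDLI-NH2, 2 nM) from STAT6(W123-T658) (250 nM), 1% DMSO, pH 7.4 HEPES buffer. After 45 min at room temperature, polarization (mP) was plotted versus log compound concentration and fitted by nonlinear regression to give IC50.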
A general note: In fluorescence polarisation assays a small probe gives low polarisation when free and higher when bound to something large.

The structures appear in SMILES notation.

T1 sequence (P40763 127-722): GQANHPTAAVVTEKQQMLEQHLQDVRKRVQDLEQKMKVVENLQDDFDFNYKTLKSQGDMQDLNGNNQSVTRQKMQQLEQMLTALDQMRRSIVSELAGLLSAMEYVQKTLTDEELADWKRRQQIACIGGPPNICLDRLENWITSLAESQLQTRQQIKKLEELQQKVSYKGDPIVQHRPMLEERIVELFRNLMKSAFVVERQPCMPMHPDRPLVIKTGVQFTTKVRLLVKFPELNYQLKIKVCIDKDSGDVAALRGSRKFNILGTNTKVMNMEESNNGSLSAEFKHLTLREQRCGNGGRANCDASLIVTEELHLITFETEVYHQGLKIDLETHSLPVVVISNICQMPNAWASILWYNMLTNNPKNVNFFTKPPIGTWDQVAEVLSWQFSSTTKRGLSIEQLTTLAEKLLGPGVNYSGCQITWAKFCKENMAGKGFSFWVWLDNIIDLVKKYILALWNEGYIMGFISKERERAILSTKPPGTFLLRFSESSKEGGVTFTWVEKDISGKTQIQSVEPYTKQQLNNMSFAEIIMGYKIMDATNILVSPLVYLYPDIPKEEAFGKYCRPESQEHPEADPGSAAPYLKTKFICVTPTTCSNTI

Usually IC50 stands for the concentration that gives 50% inhibition. As to `CC(=O)N1CC[C@H]2CC[C@@H](C(=O)N3C[C@@H](C#N)[C@H](c4ccccc4)C3)N2C(=O)[C@@H](NC(=O)c2cc3cc(C(F)(F)P(=O)(O)O)ccc3s2)C1` (single isomer, unassigned) [Compound 52, ((2-(((5S,8S,10aR)-3-acetyl-8-((3S,4R or 3R,4S)-3-cyano-4-phenylpyrrolidine-1-carbonyl)-6-oxodecahydropyrrolo[1,2-a][1,5]diazocin-5-yl)carbamoyl)benzo[b]thiophen-5-yl)difluoromethyl)phosphonic acid], the IC50 in test [1] was 1 to 10 µM; in test [2], at most 0.3 µM.

For the compound `CC(=O)N1CC[C@H]2CC[C@@H](C(=O)N3C[C@H](C(N)=O)[C@@H](c4ccccc4)C3)N2C(=O)[C@@H](NC(=O)c2cc3cc(C(F)(F)P(=O)(O)O)ccc3s2)C1` (single isomer, unassigned) [Compound 59, ((2-(((5S,8S,10aR)-3-acetyl-8-((3R,4S or 3S,4R)-3-carbamoyl-4-phenylpyrrolidine-1-carbonyl)-6-oxodecahydropyrrolo[1,2-a][1,5]diazocin-5-yl)carbamoyl)benzo[b]thiophen-5-yl)difluoromethyl)phosphonic acid], the results for the IC50 in test [1] and in test [2] were 1 to 10 µM and at most 0.3 µM, respectively.

With `CC(=O)N1CC[C@H]2CC[C@@H](C(=O)N3CC[C@H](Cc4cccnc4)C3)N2C(=O)[C@@H](NC(=O)c2cc3cc(C(F)(F)P(=O)(O)O)ccc3s2)C1` (single isomer, unassigned) [Compound 65, ((2-(((5S,8S,10aR)-3-acetyl-6-oxo-8-((S)-3-(pyridin-3-ylmethyl)pyrrolidine-1-carbonyl)decahydropyrrolo[1,2-a][1,5]diazocin-5-yl)carbamoyl)benzo[b]thiophen-5-yl)difluoromethyl)phosphonic acid or ((2-(((5S,8S,10aR)-3-acetyl-6-oxo-8-((R)-3-(pyridin-3-ylmethyl)pyrrolidine-1-carbonyl)decahydropyrrolo[1,2-a][1,5]diazocin-5-yl)carbamoyl)benzo[b]thiophen-5-yl)difluoromethyl)phosphonic acid], the IC50 in test [1] lay within 1 to 10 µM; in test [2], 0.3 to 3 µM.

Turning to `CC(=O)N1CC[C@H]2CC[C@@H](C(=O)N3C[C@H](c4ccccc4)[C@@H](C#N)C3)N2C(=O)[C@@H](NC(=O)c2cc3cc(C(F)(F)P(=O)(O)O)ccc3[nH]2)C1` (single isomer, unassigned) [Compound 138, ((2-(((5S,8S,10aR)-3-acetyl-8-((3R,4S or 3S,4R)-3-cyano-4-phenylpyrrolidine-1-carbonyl)-6-oxodecahydropyrrolo[1,2-a][1,5]diazocin-5-yl)carbamoyl)-1H-indol-5-yl)difluoromethyl)phosphonic acid], the IC50 is 1 to 10 µM in test [1] and at most 0.3 µM in test [2].

In the case of `CC(=O)N1CC[C@H]2CC[C@@H](C(=O)N3C[C@@H](C#N)[C@H](c4ccccc4)C3)N2C(=O)[C@@H](NC(=O)c2cc3cc(C(F)(F)P(=O)(O)O)ccc3[nH]2)C1` (single isomer, unassigned) [Compound 139, ((2-(((5S,8S,10aR)-3-acetyl-8-((3S,4R or 3R,4S)-3-cyano-4-phenylpyrrolidine-1-carbonyl)-6-oxodecahydropyrrolo[1,2-a][1,5]diazocin-5-yl)carbamoyl)-1H-indol-5-yl)difluoromethyl)phosphonic acid], the figures for the IC50 in test [1] and in test [2] were 1 to 10 µM and at most 0.3 µM, respectively.

As to `CCN1CC[C@H]2CC[C@@H](C(=O)N3C[C@@H](C#N)[C@H](c4ccccc4)C3)N2C(=O)[C@@H](NC(=O)c2cc3cc(C(F)(F)P(=O)(O)O)ccc3s2)C1` (single isomer, unassigned) [Compound 222, ((2-(((5S,8S,10aR)-8-((3S,4R or 3R,4S)-3-cyano-4-phenylpyrrolidine-1-carbonyl)-3-ethyl-6-oxodecahydropyrrolo[1,2-a][1,5]diazocin-5-yl)carbamoyl)benzo[b]thiophen-5-yl)difluoromethyl)phosphonic acid], the IC50 was 1 to 10 µM in test [1] and 0.3 to 3 µM in test [2].

In the case of `CCN1CC[C@H]2CC[C@@H](C(=O)N3C[C@@H](C#N)[C@H](c4ccccc4)C3)N2C(=O)[C@@H](NC(=O)c2cc3cc([C@H](F)P(=O)(O)O)ccc3s2)C1` (single isomer, unassigned) [Compound 232, ((R or S)-(2-(((5S,8S,10aR)-8-((3S,4R or 3R,4R)-3-cyano-4-phenylpyrrolidine-1-carbonyl)-3-ethyl-6-oxodecahydropyrrolo[1,2-a][1,5]diazocin-5-yl)carbamoyl)benzo[b]thiophen-5-yl)fluoromethyl)phosphonic acid], the values for the IC50 in test [1] and in test [2] were 0.1 to 1 µM and at most 0.3 µM, respectively.

Consider `CCN1CC[C@H]2CC[C@@H](C(=O)N3C[C@@H](C#N)[C@H](c4cc[nH]c(=O)c4)C3)N2C(=O)[C@@H](NC(=O)c2ccc3ccc(C(F)(F)P(=O)(O)O)cc3c2)C1` (single isomer, unassigned) [Compound 238, ((7-(((5S,8S,10aR)-8-((3R,4S or 3S,4R)-3-cyano-4-(2-oxo-1,2-dihydropyridin-4-yl)pyrrolidine-1-carbonyl)-3-ethyl-6-oxodecahydropyrrolo[1,2-a][1,5]diazocin-5-yl)carbamoyl)naphthalen-2-yl)difluoromethyl)phosphonic acid], for which the IC50 in test [1] lay in the range of 1 to 10 µM; in test [2] it was 0.3 to 3 µM.

As for `CCN1CC[C@H]2CC[C@@H](C(=O)N3C[C@@H](C#N)[C@H](c4ccccc4)C3)N2C(=O)[C@@H](NC(=O)c2ccc3ccc(C(F)(F)P(=O)(O)O)cc3c2)C1` (single isomer, unassigned) [Compound 243, ((7-(((5S,8S,10aR)-8-((3S,4R or 3R,4S)-3-cyano-4-phenylpyrrolidine-1-carbonyl)-3-ethyl-6-oxodecahydropyrrolo[1,2-a][1,5]diazocin-5-yl)carbamoyl)naphthalen-2-yl)difluoromethyl)phosphonic acid], the IC50 in test [1] lay within 1 to 10 µM; in test [2], 0.3 to 3 µM.

With `NC(=O)[C@@H]1CN(C(=O)[C@@H]2CC[C@@H]3CCN(CC(F)F)C[C@H](NC(=O)c4cc5cc(C(F)(F)P(=O)(O)O)ccc5s4)C(=O)N32)C[C@H]1c1ccccc1` (single isomer, unassigned) [Compound 245, ((2-(((5S,8S,10aR)-8-((3S,4R or 3R,4S)-3-carbamoyl-4-phenylpyrrolidine-1-carbonyl)-3-(2,2-difluoroethyl)-6-oxodecahydropyrrolo[1,2-a][1,5]diazocin-5-yl)carbamoyl)benzo[b]thiophen-5-yl)difluoromethyl)phosphonic acid], the IC50 fell in the range of 0.1 to 1 µM in test [1] and 0.3 to 3 µM in test [2].

Take `COC(=O)[C@@H]1CN(C(=O)[C@@H]2CC[C@@H]3CCN(CC(F)F)C[C@H](NC(=O)c4cc5cc(C(F)(F)P(=O)(O)O)ccc5s4)C(=O)N32)C[C@H]1c1ccccc1` (single isomer, unassigned) [Compound 247, ((2-(((5S,8S,10aR)-3-(2,2-difluoroethyl)-8-((3S,4R or 3R,4S)-3-(methoxycarbonyl)-4-phenylpyrrolidine-1-carbonyl)-6-oxodecahydropyrrolo[1,2-a][1,5]diazocin-5-yl)carbamoyl)benzo[b]thiophen-5-yl)difluoromethyl)phosphonic acid]: the results for the IC50 in test [1] and in test [2] were 0.1 to 1 µM and at most 0.3 µM, respectively.

In the case of `N#C[C@@H]1CN(C(=O)[C@@H]2CC[C@@H]3CCN(CC(F)F)C[C@H](NC(=O)c4ccc5ccc(C(F)(F)P(=O)(O)O)cc5c4)C(=O)N32)C[C@H]1c1ccccc1` (single isomer, unassigned) [Compound 248, ((7-(((5S,8S,10aR)-8-((3S,4R or 3R,4S)-3-cyano-4-phenylpyrrolidine-1-carbonyl)-3-(2,2-difluoroethyl)-6-oxodecahydropyrrolo[1,2-a][1,5]diazocin-5-yl)carbamoyl)naphthalen-2-yl)difluoromethyl)phosphonic acid], the IC50 in test [1] is 1 to 10 µM; in test [2], at most 0.3 µM.

For the compound `Cc1ccc2onc(C(=O)N3CC[C@H]4CC[C@@H](C(=O)N5C[C@@H](C#N)[C@H](c6ccccc6)C5)N4C(=O)[C@@H](NC(=O)c4ccc5ccc(C(F)(F)P(=O)(O)O)cc5c4)C3)c2c1` (single isomer, unassigned) [Compound 375], the IC50 is 1 to 10 µM in test [1] and at most 0.3 µM in test [2].

Consider `CC(=O)N1CC[C@H]2CC[C@@H](C(=O)N(C)c3ccc(C(C)(C)C#N)cc3)N2C(=O)[C@@H](NC(=O)c2cc3cc(C(F)(F)P(=O)(O)O)ccc3s2)C1` [Compound 2, ((2-(((5S,8S,10aR)-3-acetyl-8-((4-(2-cyanopropan-2-yl)phenyl)(methyl)carbamoyl)-6-oxodecahydropyrrolo[1,2-a][1,5]diazocin-5-yl)carbamoyl)benzo[b]thiophen-5-yl)difluoromethyl)phosphonic Acid], for which the values for the IC50 in test [1] and in test [2] were above 10 µM and 0.3 to 3 µM, respectively.

(Values after patent publication US20250179103A1, “6-OXODECAHYDROPYRROLO[1,2-A][1,5]DIAZOCINE AND 6-OXODECAHYDRO-4H-PYRROLO[2,1-D][1,5]THIAZOCINE DERIVATIVES AS STAT3 AND STAT6 MODULATORS FOR THE TREATMENT OF CANCER AND INFLAMMATORY CONDITIONS” (Recludix Pharma, Inc., priority 2022, published 2025).)
